The values below are quoted from earlier work in patent US12303619B2, “Polymer implants” (Foundry Therapeutics, Inc., priority 2018, dated 2025).

In the case of `CCCCN1CCCCC1C(=O)Nc1c(C)cccc1C` (stereo not shown) [bupivacaine], the pKa entry is on record as “about 8.0”.
